Active and inactive are the calls of the source. No cut-off for these calls is given here.
Legend:
[1] = test system: Human alphaherpesvirus 2; test: Antiviral activity against Human herpesvirus 2; format: functional, organism-based
[2] = test system: Influenza A virus; test: Antiviral activity against Influenza A virus A2/Taiwan; format: functional, organism-based

NC1C2C3CC4C5CC(C42)C1(c1ccccc1)C53 (racemic)
Activity [1]: Active
Activity [2]: Active

Reference: ChEMBL document CHEMBL3045192, “Medicinal chemistry of polycyclic cage compounds in drug discovery research” (Med Chem Res, 2008)
